Measurements from patent publication US9527847B2, “Treatment of lupus, fibrotic conditions, and inflammatory myopathies and other disorders using PI3 kinase inhibitors” (INFINITY PHARMACEUTICALS, INC., priority 2012, dated 2016).
Entries after “also recorded” stand apart in the source; their conditions may differ.

Experiments:
[1] = tested on: TLR9 (CPG-A induced cytokines); assay: CPG-A induced cytokine production in PBMCs; assay type: cell-based, human
Procedure: Human PBMCs were stimulated with CPG-A. CPG-A selectively activates PDCs, inducing IFN-α production via TLR9. IFN-α is a PDC cell selective readout. Primary human PBMCs from two normal human donors were used as a source of PDC cells. 200 K cells per well were used. […] Then the cells were treated with the specified concentration of CPG-A for 16 hours. RPMI-5% serum was employed.
These experiments were conducted using PBMCs.

[2] = tested on: female C.B-17 SCID mice injected with CD45RBhigh cells; assay: CD4+ Inflammatory Bowel Disease (IBD) model in SCID mice; assay type: in vivo, mouse
Procedure: In this murine model, female C.B-17 SCID mice are injected intraperitoneally (IP) with CD45RB^high cells, a subset of CD4^+ T cells obtained from normal BALB/c mice, to induce spontaneous chronic inflammation in the large intestine. Gross and histopathologic changes resulting from this treatment resemble those occurring in Crohn's disease and ulcerative colitis in humans.
On study day 0, Balb/C mice were terminated, and spleens were obtained for CD45RB^high cell isolation per the SCID IBD cell separation protocol. SCID mice were weighed and received intraperitoneal (IP) injections of the sorted cells (approx. 4×10^6 cells/ml, 100 μl/mouse injections). On study day 21, mice were weighed and randomized by body weight loss into treatment groups, and daily (QD), oral (PO) dosing was initiated. Dosing continued through study day 41, and mice were terminated on day 42.
For each animal, the entire colon (proximal and distal) was trimmed into 8 equally spaced pieces for processing and embedding. Sections were stained with hemotoxylin and eosin (H&E). For each H&E stained section, submucosal edema was quantitated by measuring the distance from the muscularis mucosa to the internal border of the outer muscle layer in a non tangential area thought to most represent the severity of this change. Mucosal thickness was also measured in a non-tangential area of the section that best represented the overall mucosal thickness. This parameter is indicative of gland elongation and mucosal hyperplasia.
Parameters that were scored using percent involvement included: (1) Colon glandular epithelial loss—this includes crypt epithelial as well as remaining gland epithelial loss; and (2) Colon Erosion—this reflects loss of surface epithelium and generally is associated with mucosal hemorrhage (reflective of the bleeding seen clinically and at necropsy).
The 4 important scored parameters (inflammation, glandular epithelial loss, erosion, hyperplasia) were ultimately summed to arrive at a sum of histopathology scores, which indicates the overall damage and would have a maximum score of 20.
Inflammatory cell infiltrates in the colonic mucosa were evaluated for approximate % of neutrophils in the total infiltrate using the criteria below.
This value was then multiplied by the inflammation score in an attempt to semiquantify relative PMN infiltration across sections and animals.

`C[C@H](Nc1ncnc2[nH]cnc12)c1cc2cccc(Cl)c2c(=O)n1-c1ccccc1` [Compound 292] was tested, and the “CPG-A induced IFN-α production” value [1] was “potently inhibited; also recorded: blocked”, the “CPG-A induced IL-6 production” value [1] was “Inhibited” and the “CPG-A induced IL-8 production” value [1] was “Inhibited”. For the same compound, the “CPG-A induced TNF-α production” value [1] was “Inhibited”, the Colon hyperplasia reduction ([2]; 1 mg/kg PO QD, total colon) was 32% and the Mucosal thickness reduction ([2]; 1 mg/kg PO QD, total colon) was 31%. For the same compound, the “Colon weight reduction toward normal” value ([2]; 1 mg/kg PO QD, vs vehicle) was 34%, the Colon inflammation reduction ([2]; 3 mg/kg PO QD, distal colon) was 42% and the Gland loss reduction ([2]; 3 mg/kg PO QD, distal colon) was 52%. For the same compound, the Hyperplasia reduction ([2]; 3 mg/kg PO QD, distal colon) was 61%, the Mucosal thickness reduction ([2]; 3 mg/kg PO QD, distal colon) was 64% and the Neutrophil score reduction ([2]; 3 mg/kg PO QD, distal colon) was 66%. For the same compound, the PMN percent reduction ([2]; 3 mg/kg PO QD, distal colon) was 56%, the “Summed histopathology score reduction” value ([2]; 3 mg/kg PO QD, distal colon) was 52% and the Colon inflammation reduction ([2]; 3 mg/kg PO QD, proximal colon) was 19%. For the same compound, the Gland loss reduction ([2]; 3 mg/kg PO QD, proximal colon) was 24%, the Hyperplasia reduction ([2]; 3 mg/kg PO QD, proximal colon) was 37% and the Mucosal thickness reduction ([2]; 3 mg/kg PO QD, proximal colon) was 36%. For the same compound, the Neutrophils score reduction ([2]; 3 mg/kg PO QD, proximal colon) was 43%, the PMN percent reduction ([2]; 3 mg/kg PO QD, proximal colon) was 39% and the “Summed histopathology score reduction” value ([2]; 3 mg/kg PO QD, proximal colon) was 28%. For the same compound, the Colon hyperplasia reduction ([2]; 3 mg/kg PO QD, total colon) was 49%, the Colon inflammation reduction ([2]; 3 mg/kg PO QD, total colon) was 30% and the Gland loss reduction ([2]; 3 mg/kg PO QD, total colon) was 38%. For the same compound, the Mucosal thickness reduction ([2]; 3 mg/kg PO QD, total colon) was 51%, the Neutrophil score reduction ([2]; 3 mg/kg PO QD, total colon) was 54% and the PMN percent reduction ([2]; 3 mg/kg PO QD, total colon) was 47%. For the same compound, the “Summed histopathology score reduction” value ([2]; 3 mg/kg PO QD, total colon) was 40%, the “Colon weight reduction toward normal” value ([2]; 3 mg/kg PO QD, vs vehicle) was 50% and the Colon inflammation reduction ([2]; 10 mg/kg PO QD, distal colon) was 28%. For the same compound, the “Colon mucosal thickness reduction” value ([2]; 10 mg/kg PO QD, distal colon) was 46%, the Gland loss reduction ([2]; 10 mg/kg PO QD, distal colon) was 39% and the Hyperplasia reduction ([2]; 10 mg/kg PO QD, distal colon) was 46%. For the same compound, the “Summed histopathology score reduction” value ([2]; 10 mg/kg PO QD, distal colon) was 38%, the Colon edema reduction ([2]; 10 mg/kg PO QD, proximal colon) was 68% and the Colon inflammation reduction ([2]; 10 mg/kg PO QD, proximal colon) was 17%. For the same compound, the Erosion reduction ([2]; 10 mg/kg PO QD, proximal colon) was 94%, the Gland loss reduction ([2]; 10 mg/kg PO QD, proximal colon) was 26% and the Hyperplasia reduction ([2]; 10 mg/kg PO QD, proximal colon) was 45%. The Mucosal thickness reduction ([2]; 10 mg/kg PO QD, proximal colon) was 43%, the Neutrophil score reduction ([2]; 10 mg/kg PO QD, proximal colon) was 45% and the PMN percent reduction ([2]; 10 mg/kg PO QD, proximal colon) was 37%. For the same compound, the “Summed histopathology score reduction” value ([2]; 10 mg/kg PO QD, proximal colon) was 31%, the Absolute body weight ([2]; 10 mg/kg PO QD, significant days 27-31, 35, 39, vs vehicle) was “significantly (by ANOVA) increased” and the Colon edema reduction ([2]; 10 mg/kg PO QD, total colon) was 60%. The Colon hyperplasia reduction ([2]; 10 mg/kg PO QD, total colon) was 46%, the Colon inflammation reduction ([2]; 10 mg/kg PO QD, total colon) was 24% and the Gland loss reduction ([2]; 10 mg/kg PO QD, total colon) was 33%. The Mucosal thickness reduction ([2]; 10 mg/kg PO QD, total colon) was 45%, the Neutrophil score reduction ([2]; 10 mg/kg PO QD, total colon) was 44% and the PMN percent reduction ([2]; 10 mg/kg PO QD, total colon) was 37%. The “Summed histopathology score reduction” value ([2]; 10 mg/kg PO QD, total colon) was 35% and the “Colon weight reduction toward normal” value ([2]; 10 mg/kg PO QD, vs vehicle) was 51%.
